Our source for the IC50 and inhibition values is ChEMBL document CHEMBL1777676, “3-substitued indoles: one-pot synthesis and evaluation of anticancer and Src kinase inhibitory activities” (Bioorg Med Chem Lett, 2011).

For test [1], the target named is Proto-oncogene tyrosine-protein kinase Src (Homo sapiens, UniProt P12931). Nature of the test: Inhibition of c-Src using AEEEIYGEFEAKKKK substrate by fluorescence intensity assay.
The next test deals with SK-OV-3. Nature of the test: Anticancer activity against human SKOV3 cells assessed as inhibition of cell proliferation at 50 uM after 72 hrs relative to control. The test is classed as functional. The note with it: SK-OV-3, 72 h.
The test system of a further test is HT-29. Nature of the test: Anticancer activity against human HT-29 cells assessed as inhibition of cell proliferation at 50 uM after 72 hrs relative to control. The test is classed as functional. To be noted: HT-29, 72 h.

Where only a bound is given, the exact number is not on record here.

Sequence of Proto-oncogene tyrosine-protein kinase Src (P12931 2-536 limits assumed): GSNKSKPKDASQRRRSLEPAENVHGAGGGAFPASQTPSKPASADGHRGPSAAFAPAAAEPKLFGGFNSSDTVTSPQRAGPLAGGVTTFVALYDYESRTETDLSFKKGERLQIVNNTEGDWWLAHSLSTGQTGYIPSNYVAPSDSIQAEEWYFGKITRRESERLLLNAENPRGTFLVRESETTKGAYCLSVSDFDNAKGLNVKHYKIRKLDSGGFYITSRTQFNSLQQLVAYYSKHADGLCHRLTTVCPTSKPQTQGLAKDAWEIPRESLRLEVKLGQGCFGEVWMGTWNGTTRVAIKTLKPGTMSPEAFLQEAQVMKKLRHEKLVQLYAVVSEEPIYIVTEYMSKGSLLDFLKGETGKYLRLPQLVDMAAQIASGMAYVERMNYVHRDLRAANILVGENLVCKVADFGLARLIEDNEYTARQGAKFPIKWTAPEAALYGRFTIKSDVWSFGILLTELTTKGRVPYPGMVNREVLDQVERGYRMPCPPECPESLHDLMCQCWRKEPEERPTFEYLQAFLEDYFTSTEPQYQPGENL

One may read the IC50 as the concentration needed to halve the response being measured. Higher therefore signals weaker potency in that assay. What is called inhibition is how much of the control response was suppressed. On to `CN(c1ccccc1)C(c1ccc(Cl)cc1)c1c[nH]c2ccccc12` (configuration not stated), for which, in test [1], the IC50 was > 150 µM. Further, the inhibition at 50 µM in the test with SK-OV-3 came to 72%.
As to `Cc1ccc(C(c2c[nH]c3ccccc23)N(C)c2ccccc2)cc1` (configuration not stated), the IC50 in test [1] is > 150 µM.
On the same count and under the same terms, the value for `COc1ccc(C(c2c[nH]c3ccccc23)N(C)c2ccccc2)cc1` (configuration not stated) was > 150 µM.
`CN(c1ccccc1)C(c1ccccc1)c1c[nH]c2ccccc12` (configuration not stated) displayed an IC50 in test [1] of 50.6 µM. Also, the inhibition at 50 µM with SK-OV-3 is 55%.
Turning to `CN(c1ccccc1)C(c1ccc(O)cc1)c1c[nH]c2ccccc12` (configuration not stated), in test [1], the IC50 is > 150 µM.
The same measure, in the same setting: the result for `CN(c1ccccc1)C(c1ccc(O)c(Br)c1)c1c[nH]c2ccccc12` (configuration not stated) reads > 150 µM.
Consider `COc1cccc(C(c2c[nH]c3ccccc23)N(C)c2ccccc2)c1` (configuration not stated), for which the IC50 in test [1] is > 150 µM.
Turning to `COc1ccc(C(c2c[nH]c3ccccc23)N(C)c2ccccc2)c(OC)c1` (configuration not stated), in test [1], the IC50 was > 150 µM.
Same read-out and setting: the result for `CN(c1ccccc1)C(c1ccccc1)c1cn(C)c2ccccc12` (configuration not stated) reads > 150 µM; that for `CN(c1ccccc1)C(c1ccc(Cl)cc1)c1cn(C)c2ccccc12` (configuration not stated), 98.3 µM.
`Cc1ccc(C(c2cn(C)c3ccccc23)N(C)c2ccccc2)cc1` (configuration not stated) returned an IC50 in test [1] of 60.5 µM. This IC50 lies about 1.6-fold lower than the previous one.
Still for that read-out and setting: the value for `CN(c1ccccc1)C(c1cccc([N+](=O)[O-])c1)c1c[nH]c2ccccc12` (configuration not stated) was 58.3 µM.
As to `CN(c1ccccc1)C(c1ccccc1)c1c[nH]c2ccc(Br)cc12` (configuration not stated), the IC50 in test [1] stood at 71.6 µM.
Same read-out and setting: the result for `COc1ccc(C(c2c[nH]c3ccc(OC)cc23)N(C)c2ccccc2)cc1` (configuration not stated) reads 100 µM.
In the case of `COc1ccc2[nH]cc(C(c3ccc(C)cc3)N(C)c3ccccc3)c2c1` (configuration not stated), the inhibition at 50 µM in the test with HT-29 and in the test on SK-OV-3 was 70% in each case. Moreover, the IC50 in test [1] is > 150 µM.
On to `Cc1ccc(C(c2c[nH]c3ccc(Br)cc23)N(C)c2ccccc2)cc1` (configuration not stated), for which the inhibition at 50 µM in the test on HT-29 and in the test with SK-OV-3 was 70% throughout. Besides, in test [1], the IC50 was > 150 µM.
On to `COc1ccc(C(c2c[nH]c3ccc(Br)cc23)N(C)c2ccccc2)cc1` (configuration not stated), for which the inhibition at 50 µM in the test on HT-29 and in the test on SK-OV-3 was 70% each time. For the same compound, the midpoint of inhibition in test [1], the IC50, lay at 106 µM.
For `COc1ccc2[nH]cc(C(c3ccc(Cl)cc3)N(C)c3ccccc3)c2c1` (configuration not stated), the IC50 in test [1] amounted to 87 µM. Further, in the test on SK-OV-3, the inhibition at 50 µM is 77%.
